Values of other authors, collected in patent US20240335458A1, “OPHTHALMIC COMPOSITION FOR THE TREATMENT OF VISUAL DISORDERS” (FOODVICA, S.A. DE C.V., priority 2021, published 2024).

Experiments:
[1] = tested on: sodium selenite-induced cataract
[2] = tested on: protein aggregates obtained from surgically removed cataracts; details: 2 mg/ml protein aggregates, 10 µM and 200 μM, 6-day treatment at room temperature
[3] = tested on: age-related cataract human lens nuclei; details: 25 mM lanosterol solution, 6 days
[4] = tested on: natural cataract lens of rabbits; details: 25 mM lanosterol, 6 days
cataracts = details: 14 intravitreal injections of lanosterol nanoparticles (final dose 1.4 mg) plus 50 μL drops 3 times a day for 6 weeks, 7 dogs
rat lens opacities = details: 15 mM lanosterol in liposomes

In the case of COc1cc(/C=C/C(=O)CC(=O)/C=C/c2ccc(O)c(OC)c2)ccc1O [curcumin], the “Levels of lipid peroxidation, enzymatic and non-enzymatic antioxidants” value ([1]; curcumin 75 mg/kg body weight single dose, sodium selenite 15 μM/kg body weight) is given as “significant reduction” and the “aA- and aB-crystallin and Hsp 70 expression” value ([1]; selenite-induced cataractogenesis) is given as “suppressed aA- and aB-crystallin expression induced by selenite and Hsp 70”.
In the case of C[C@H](CCCC(C)(C)O)[C@H]1CC[C@H]2[C@@H]3CC=C4C[C@@H](O)CC[C@]4(C)[C@H]3CC[C@]12C [25-hydroxycholesterol], the “Macroscopic clearing of protein aggregate solutions” value [2] is given as “dramatically cleared the originally dark solutions in a dose-dependent way”.
In the case of CC(C)=CCC[C@@H](C)[C@H]1CC[C@@]2(C)C3=C(CC[C@]12C)[C@@]1(C)CC[C@H](O)C(C)(C)[C@@H]1CC3 [lanosterol], the “Reversal of opacification of cataract nuclei” value [3] is given as “did not reverse the opacification”, the “Lens clarity before and after treatment” value [4] is given as “solid trend towards reduction of cataract severity” and the “Reduction of cataract stage” value (cataracts) is given as “reduce up to two degrees the stage of cataracts”. For the same compound, the “Macroscopic clearing of protein aggregate solutions” value [2] was “dramatically cleared the originally dark solutions in a dose-dependent way” and the “Reversal of lens opacities” value (rat lens opacities) was “failed to reverse the opacities or prevent progression”.
